Data published in patent publication US20230286995A1, “METABOLICALLY STABLE PYRIMIDINYL DIHYDROQUINOXALINONES AS TUBULIN POLYMERIZATION INHIBITORS” (UNIVERSITY OF TENNESSEE RESEARCH FOUNDATION, priority 2022, published 2023).
“Also recorded” adds a separate entry of the source. Read-outs that look alike come from different tables or passages of the source.

Tests used:
[1] = system: A375/TxR xenografts; assay: In vivo A375/TxR melanoma xenograft model; set-up: species or system NSG mice; conditions: for decrease in tumor weight vs vehicle group / tumor reduction / tumor growth inhibition vs control: 2 times per week
[2] = system: M14; assay: Cytotoxicity assay (MTS, 72 h); conditions: Homo sapiens
[3] = in vitro; conditions: human, liver microsomes
[4] = system: DU-145/VxR; assay: Cytotoxicity assay (MTS, 72 h); format: cell-based; conditions: Homo sapiens, DU-145, read-out: IC50 ± SEM (nM) DU-145/VXR
[5] = system: MDA-MB-231/VxR; assay: Cytotoxicity assay (MTS, 72 h); format: cell-based; conditions: Homo sapiens
[6] = system: M14/LCC6MDR1; assay: Cytotoxicity assay (MTS, 72 h); format: cell-based; conditions: Homo sapiens, read-out: IC50 ± SEM (nM) M14/LCC6MDR1
[7] = system: human melanoma and breast cancer cell lines; assay: Cytotoxicity, all tested cell lines of Table 1; format: cell-based; conditions: Homo sapiens, melanoma and breast lines of Table 1; read-out: IC50 values, range over all tested cell lines
[8] = system: A375/TxR cells; assay: Clonogenic assay; format: cell-based, human; conditions: 7 days
Protocol: In case of clonogenic assay, A375/TxR cells were seeded in 6-well plates at very low concentration (1000 cells/well). […] Medium was replaced with fresh drug once during the treatment. Cells were then fixed with cold methanol and stained with 0.5% crystal violet. Colony area density was quantified using the Keyence Hybrid Cell Count module.
Cell proliferation inhibition assay: The cell proliferation inhibitory effects of tested compounds were first determined through MTS assay as previously described. In short, 3000 to 7500 cells were added to a 96-well cell culture plate followed by the treatment of the test compounds (0.1 nM to 3 μM) in quadruplicate after seeding and overnight incubation. After 72 hours of treatment, MTS (Promega) was added to the wells and the absorbance was measured at […] after incubating for 1.5 to 2 h. […] Briefly, A375/TxR cells (1000 cells/well) were treated with growth medium containing 0.5 nM, 1 nM, or 2 nM of 5v and incubated for over 7 days (the incubation medium was changed every 3 days). After fixing and staining with 0.5% crystal violet, the cell colonies were quantified by the Hybrid Counting module of the Keyence BZ-X700 microscope. The assay was performed in triplicate.

[9] = system: MDA-MB-231/TxR; assay: Cytotoxicity assay (MTS, 72 h); format: cell-based; conditions: Homo sapiens
[10] = system: RPMI-7951; assay: Cytotoxicity assay (MTS, 72 h); format: cell-based; conditions: Homo sapiens, Table 1, read-out: IC50 (nM) Melanoma RPMI-7951
[11] = in vitro; conditions: mouse, liver microsomes
[12] = system: A375/TxR cells; assay: Wound healing (scratch) assay; format: cell-based, human
Protocol: Scratch-wound assay: The anti-migration effect of 5v was determined by a scratch-wound assay using an IncuCyte S3 live-cell imager as previously reported. After overnight incubation, the monolayers of A375/TxR cells were scratched by a WoundMaker (Essen BioScience) and the cells were treated with 5v (0.5 nM, 1 nM, 2 nM, and 5 nM) for 48 h. The wounds were imaged every 2 h by IncuCyte and the relative wound density was calculated by IncuCyte Scratch Wound Software Module. The assay was performed in quadruplicate.

[13] = system: MDA-MB-468; assay: Cytotoxicity assay (MTS, 72 h); format: cell-based, human; conditions: Homo sapiens, MDA-MB-468; Table 1; read-out: IC50 (nM) Breast MDA-MB-468
[14] = system: taxane-resistant melanoma, breast, and lung cancer cells; assay: Cytotoxicity, regular and taxane-resistant lines of Table 2; format: cell-based; conditions: Homo sapiens
[15] = system: A375/TxR; assay: Cytotoxicity assay (MTS, 72 h); format: cell-based; conditions: Homo sapiens, read-out: IC50 ± SEM (nM) A375/TxR
[16] = logP; format: physicochemical; conditions: Table 1; method not described
[17] = system: MDA-MB-231; assay: Cytotoxicity assay (MTS, 72 h); format: cell-based; conditions: Homo sapiens
[18] = system: PANC-1; assay: Cytotoxicity assay (MTS, 72 h); format: cell-based; conditions: Homo sapiens
Protocol: Mia PaCa-2 and PANC-1 cells were seeded in 96-well plates at 4000 and 5000 cells per well, respectively.
Cytotoxicity Assay. […] Each experiment consisted of four replicates.

[19] = biological target: T1, porcine brain tubulin (Sus scrofa, UniProt P02550+P02554); assay: Tubulin polymerization inhibitory assay (FIG. 29A); format: biochemical; conditions: 10 μM, 37° C.; DMSO control 0.3
T1 construct: tubulin mixture containing porcine brain tubulin (3 mg/mL); purchased Cytoskeleton, Inc. T-238P; host or cells: porcine brain
Protocol: Tubulin polymerization inhibitory assay: In vitro tubulin polymerization assay was carried out according to the manufacturers' instructions (Cytoskeleton). Briefly, 10 μM of 5v was added into tubulin protein (3 mg/mL, purity>99%), and the mixture was transferred into a microplate reader and incubated at 37° C. […] Colchicine and paclitaxel were used as positive controls. […] The assay was carried out in duplicate.

[20] = system: MDA-MB-453; assay: Cytotoxicity assay (MTS, 72 h); format: cell-based, human; conditions: Homo sapiens, MDA-MB-453
[21] = Microsomal stability assay; conditions: Table 3; liver microsomes; mean (% CV)
[22] = H&E and anti-human mitochondria IHC
[23] = M14, read-out: IC50 (nM) Melanoma M14
[24] = M14, read-out: IC50 ± SEM (nM) M14
[25] = MDA-MB-231, read-out: IC50 ± SEM (nM) MDA-MB-231/VXR
[26] = taxane-resistant melanoma, breast, and lung cancer cells, read-out: IC50 values, range against taxane-resistant cells
[27] = MDA-MB-231, read-out: IC50 in MDA-MB-231 parental line
[28] = MDA-MB-231, read-out: IC50 ± SEM (nM) MDA-MB-231, Table 2
[29] = Table 1, read-out: IC50 (nM) Breast MDA-MB-453

T1 sequence (P02550 whole entry): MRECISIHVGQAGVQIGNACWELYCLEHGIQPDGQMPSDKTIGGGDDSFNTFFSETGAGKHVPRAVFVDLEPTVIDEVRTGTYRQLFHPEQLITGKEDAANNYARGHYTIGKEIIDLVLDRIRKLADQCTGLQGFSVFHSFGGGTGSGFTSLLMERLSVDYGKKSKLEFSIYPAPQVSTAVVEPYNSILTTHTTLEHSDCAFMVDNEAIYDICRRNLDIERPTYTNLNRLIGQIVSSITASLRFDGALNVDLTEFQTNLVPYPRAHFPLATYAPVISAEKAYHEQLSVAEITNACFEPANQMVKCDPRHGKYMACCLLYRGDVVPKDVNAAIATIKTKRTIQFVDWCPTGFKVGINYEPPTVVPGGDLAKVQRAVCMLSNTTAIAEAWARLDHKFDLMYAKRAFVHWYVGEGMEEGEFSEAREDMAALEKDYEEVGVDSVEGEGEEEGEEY
T1 sequence (P02554 whole entry): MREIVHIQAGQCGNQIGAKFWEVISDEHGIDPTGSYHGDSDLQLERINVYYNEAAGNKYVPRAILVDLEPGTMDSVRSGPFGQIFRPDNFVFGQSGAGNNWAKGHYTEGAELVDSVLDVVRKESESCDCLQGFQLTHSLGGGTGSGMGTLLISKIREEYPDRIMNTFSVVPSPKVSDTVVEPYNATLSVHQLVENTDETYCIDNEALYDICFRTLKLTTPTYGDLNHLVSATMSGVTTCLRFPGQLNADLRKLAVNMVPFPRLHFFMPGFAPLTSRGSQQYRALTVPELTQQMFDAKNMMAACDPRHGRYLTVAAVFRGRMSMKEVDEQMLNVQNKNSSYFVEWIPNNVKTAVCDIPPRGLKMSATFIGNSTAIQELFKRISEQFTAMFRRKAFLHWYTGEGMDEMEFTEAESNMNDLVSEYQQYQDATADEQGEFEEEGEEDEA

Structure (SMILES): CCNc1nc2c(c(N3CC(=O)Nc4cc(OC)ccc43)n1)CCC2 [Compound 5v, 4-(2-(ethylamino)-6,7-dihydro-5H-cyclopenta[d]pyrimidin-4-yl)-7-methoxy-3,4-dihydroquinoxalin-2(1H)-one]
- decrease in tumor weight vs vehicle group ([1]; 2 mg/kg IV): 47.4%
- tumor reduction / tumor growth inhibition vs control ([1]; 2 mg/kg IV): 62.3%
- toxicity to major organs (heart, kidney, spleen), H&E ([1]; 2 mg/kg or 4 mg/kg, three weeks): no obvious damage to the major organs; also recorded: no toxicity to major organs
- cleaved caspase-3 in tumors, IHC ([1]; 2 mg/kg, 4 mg/kg): significantly increased the proportion of cleaved caspase-3 positive cells
- decrease in tumor weight vs vehicle group ([1]; 4 mg/kg IV): 59.9%
- tumor reduction / tumor growth inhibition vs control ([1]; 4 mg/kg IV): 76.6%
- Ki67 and CD31 expression in tumors, IHC ([1]; 2 and 4 mg/kg): significantly decreased
- spontaneous liver metastasis [1, 22]: significant inhibition of lung or liver metastasis
- spontaneous lung metastasis [1, 22]: significant inhibition of lung or liver metastasis
- mouse body weight during therapy ([1]; all doses tested): no body weight loss observed
- tumor necrosis, H&E ([1]; mouse, in vivo): more necrotic cells in 5v-treated tumors
- IC50 ([2]; M14, read-out: IC50 (nM) Melanoma Cancer M14): 1.5 ± 0.3 nM
- IC50 [2, 23]: 0.6 ± 0.1 nM
- IC50 [2, 24]: 0.3 ± 0.04 nM
- half-life at 1 μg/mL [3]: 24.7 min
- microsomal CLint at 1 μg/mL [3]: 28.1 µL/min/mg
- IC50 [4]: 1 ± 0.1 nM
- IC50 [5, 25]: 1.2 ± 0.3 nM
- IC50 ([6]; Table 2, multidrug-resistant): 0.3 ± 0.03 nM
- IC50 [7]: 0.4 to 26 nM
- colony formation of A375/TxR cells [8]: inhibit the proliferation of A375/TxR cell colonies in a concentration-dependent manner
- IC50 ([9]; read-out: IC50 ± SEM (nM) MDA-MB-231/TxR, Table 2, paclitaxel-resistant): 0.6 ± 0.1 nM
- IC50 [10]: 0.5 ± 0.1 nM
- half-life at 1 μg/mL [11]: 6.33 min
- microsomal CLint at 1 μg/mL [11]: 109 µL/min/mg
- migration of A375/TxR cells [12]: remarkable potency in inhibiting the cell migration of A375/TxR cells
- IC50 [13]: 0.8 ± 0.1 nM
- IC50 [14, 26]: 0.3 to 5 nM
- IC50 ([15]; Table 2, paclitaxel-resistant): 0.3 ± 0.03 nM
- logP [16]: 2.39
- IC50 ([17]; MDA-MB-231, read-out: IC50 (nM) Breast Cancer MDA-MB-231, Table 6): 2.6 ± 0.5 nM
- IC50 ([17]; MDA-MB-231, read-out: IC50 (nM) Breast MDA-MB-231, Table 1): 0.7 ± 0.1 nM
- IC50 [17, 27]: 1 to 2.2 nM
- IC50 [17, 28]: 1 ± 0.2 nM
- IC50 ([18]; Table 6, read-out: IC50 (nM) Pancreatic cancer PANC-1): 3.7 ± 0.7 nM
- A340 at which tubulin assembly stabilized [19]: approximately 0.05
- IC50 [20, 29]: 0.43 ± 0.1 nM
- IC50 ([20]; Table 6, read-out: IC50 (nM) Breast Cancer MDA-MB-453): 1.3 ± 0.5 nM
- Metabolic stability in rat t1/2 [21]: 3.6 min

Structure (SMILES): COc1ccc2c(c1)NC(=O)CN2c1nc(C)nc2c1CCC2 [Compound 5m, 7-methoxy-4-(2-methyl-6,7-dihydro-5H-cyclopenta[d]pyrimidin-4-yl)-3,4-dihydroquinoxalin-2(1H)-one]
- decrease of final tumor volume vs vehicle ([1]; 2.5 mg/kg IV, 7 doses within 24 days): 64.6%
- IC50 [2, 23]: 1.4 ± 0.4 nM
- IC50 [2, 24]: 1.3 ± 0.2 nM
- CLint scaled at 1 μg/mL [3]: 13 mL/min/kg
- IC50 [4]: 3.7 ± 0.6 nM
- IC50 ([5]; MDA-MB-231, 72 h, read-out: IC50 in Compound 17ya resistant MDA-MD-231/VxR cells): 1.2 to 2.9 nM
- IC50 [5, 25]: 2.3 ± 0.4 nM
- IC50 [6]: 1.4 ± 0.3 nM
- IC50 [7]: 0.4 to 26 nM
- colony formation of A375/TxR cells [8]: completely inhibited the colony formation at high dose, i.e., 2 nM
- IC50 ([9]; read-out: IC50 ± SEM (nM) MDA-MB-231/TxR): 1.5 ± 0.3 nM
- IC50 [10]: 1.5 ± 0.4 nM
- CLint scaled at 1 μg/mL [11]: 48 mL/min/kg
- migration of A375/TxR cells [12]: markedly inhibited the migration of A375/TxR cells
- IC50 [13]: 1.8 ± 0.4 nM
- IC50 ([14]; melanoma, breast and lung cancer cell lines, read-out: IC50 values, range against regular and paclitaxel-resistant lines): 1 to 5 nM
- IC50 [14, 26]: 0.3 to 5 nM
- IC50 [15]: 1.1 nM
- logP [16]: 2.96
- IC50 [17, 27]: 1 to 2.2 nM
- IC50 [17, 28]: 1.7 ± 0.4 nM
- IC50 ([18]; Example 7, FIG. 20, read-out: calculated IC50, PANC-1 cells): 2.7 nM
- IC50 [20, 29]: 0.5 ± 0.1 nM
- Metabolic stability in rat t1/2 [21]: 8.0 min
- Metabolic stability in rat t1/2 (min) [21]: 7.97 (0.7) min
